Literature values as cited in US20090062369A1, “USE OF SECRETORY PHOSPHOLIPASE A2 (SPLA2) INHIBITORS TO DECREASE SPLA2 LEVELS” (priority 2007, published 2009).

System: sPLA2
Conditions: cited from earlier work

CCc1c(C(=O)C(N)=O)c2c(OCC(=O)O)cccc2n1Cc1ccccc1 [A-001, ((3-(2-Amino-1,2-dioxoethyl)-2-ethyl-1-(phenylmethyl)-1H-indol-4-yl)oxy)acetic acid]
mode of sPLA2 inhibition: competitively inhibits sPLA2
